Measurements from US20030170245A1, “Activation of matriptase and diagnostic and therapeutic methods based thereon” (priority 2002, published 2003).
One block for each molecule: values may come before it.

What was measured:
matriptase [1] = experiment: Induction of matriptase activation in A1N4 mammary epithelial cells (immunoblot of two-chain form with mAb M69); type: cell-based, human; conditions: for induction of matriptase activation (two-chain form): A1N4 cells, qualitative; for concentration at which maximal activation of matriptase was achieved: intact A1N4 cells
Method: FIG. 22 LPA and S1P induce the activation of matriptase.
(§1) Immunoblotting analysis: Immunobloting was conducted as previously described. Proteins were separated by 10% SDS-PAGE, transferred overnight to nitrocellulose sheets (Schleicher & Schuell, Keene, N.H.) or polyvinylidene fluoride (PVDF) and subsequently probed with mAb, as indicated. Immuno-reactive polypeptides were visualized using peroxidase-labeled anti-rat immunoglobulin and the ECL detection system (NEN, Boston, Mass.).
Induction of matriptase activation in A1N4 mammary epithelial cells: To serum starve 184 A1N4 cells, the cells were plated at 50-60% confluence, and maintained for 48-72 hrs in medium containing 0.5% serum. The activation of matriptase was then induced by incubating the cells with Iscove's Modified Dulbecco's Medium (IMEM), containing serum, as indicated in the Figure legend. Cells were then scrapped in PBS, and pelleted by centrifigation with a 5 min spin (1500×g). The cell pellets were lysed on ice for 20 min in lysis buffer (1% TritonX-100 in phosphate buffered saline). Cellular debris were removed by centrifugation for 10 min at 14,000×g. Equal protein amounts, as determined by the BCA protein micro assay (Pierce), were resolved under non-reducing, non-boiled conditions, by sodium dodecyl sulfate-polyacrylamide gel electrophoresis (SDS-PAGE), and electroblotted onto PVDF membranes (Millipore).

[2] = system: mRNA levels for matriptase or HAI-1; experiment: mRNA levels in estrogen-depleted MCF-7 cells after hormone treatment; type: cell-based, human; conditions: data not shown
Method: Northern blotting—Total RNA was extracted from cell lines with RNAzol reagent (Tel-Test, Inc., Friendswood, Tex.) according to the manufacturer's instructions. Ten micrograms of total RNA from each cell line was resolved by electrophoresis on a 1.2% phosphate-buffered agarose gel containing 2M formaldehyde. RNA was subsequently transferred to hybond-N nylon membranes (Amersham Pharmacia Biotech, Buckinghamshire, England) and hybridized to ^32P-labeled riboprobes at 65° C. for 36 hours, followed by three washes in 0.1×SSC/0.1%SDS at 80° C. for 30 minutes each to remove unbound probe. To generate the labeled riboprobes, the coding sequences of Matriptase and HAI-1 were cloned into the pcDNA3.1 vector (Invitrogen, San Diego, Calif.), and were linearized with an appropriate restriction enzyme just 5′ of the coding sequences. These linearized vectors were used in in vitro SP6 RNA polymerase reactions with ^32P-UTP (3000 Ci/mmol, NEN, Boston, Mass.) to generate labeled antisense riboprobes. To control for approximately equal loading of RNA from each cell line, labeled riboprobes directed against the message of the ribosomal protein 36B4 were generated in a similar fashion, except that a vector containing approximately 500 bp of the coding sequence was used. […]

[3] = system: A1N4 human mammary epithelial cells; experiment: Immunofluorescence of actin cytoskeleton rearrangement in A1N4 cells; type: cell-based
Method: FIG. 23 Immunofluorescence of actin rearrangement and activated matriptase following LPA and SIP stimulation.
Immunofluorescence: Cells were fixed with 2% paraformaldehyde for 10 min. The two-chain form matriptase was detected with mAb M69 and total matriptase was detected with mAb M32 for 1 hr at room temperature. This was followed by an 1 hr incubation with 1:200 dilution of FITC-conjugated goat anti-mouse (Jackson Immunoresearch, PA). Cells were viewed on a Zeiss microscope, and photographed with Kodak film.

matriptase [4] = biological target: T1, matriptase (Homo sapiens, UniProt Q9Y5Y6); experiment: Gelatin zymography of matriptase and matriptase/HAI-1 complex; type: biochemical; conditions: 1 mg/ml gelatin zymogram
T1 construct: separated into two groups of polypeptides with apparent sizes of 45-kDa (A chain) and 25-kDa (B chain); from tissue; host or cells: human milk
T1 sequence (Q9Y5Y6 190-614 limits assumed): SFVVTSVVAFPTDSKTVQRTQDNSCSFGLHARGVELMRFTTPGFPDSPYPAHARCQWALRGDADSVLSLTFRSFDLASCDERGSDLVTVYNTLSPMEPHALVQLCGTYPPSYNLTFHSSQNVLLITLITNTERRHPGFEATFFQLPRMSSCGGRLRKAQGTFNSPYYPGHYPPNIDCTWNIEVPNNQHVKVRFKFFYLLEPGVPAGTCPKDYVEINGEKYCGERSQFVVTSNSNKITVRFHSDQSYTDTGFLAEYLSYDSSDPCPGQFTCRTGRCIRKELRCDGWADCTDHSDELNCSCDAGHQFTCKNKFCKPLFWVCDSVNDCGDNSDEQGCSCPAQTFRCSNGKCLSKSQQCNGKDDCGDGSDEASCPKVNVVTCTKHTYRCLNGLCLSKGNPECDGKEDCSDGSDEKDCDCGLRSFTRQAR
T1 sequence (Q9Y5Y6 615-854 limits assumed): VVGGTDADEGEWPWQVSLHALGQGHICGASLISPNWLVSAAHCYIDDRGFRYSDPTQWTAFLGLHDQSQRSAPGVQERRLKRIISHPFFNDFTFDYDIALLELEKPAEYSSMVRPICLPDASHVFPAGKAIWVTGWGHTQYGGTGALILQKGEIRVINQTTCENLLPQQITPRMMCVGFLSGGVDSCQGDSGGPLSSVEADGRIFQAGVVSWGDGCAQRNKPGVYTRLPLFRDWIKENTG
Text: (§2) FIG. 11 Inhibition of matriptase by HAI-1. Matriptase and HAI-1 were isolated from human milk by anti-matriptase mAb 21-9 immunoaffinity chromatography, as described previously, and were maintained in an uncomplexed status in elution buffer, 0.1 M glycine, pH 2.4.

matriptase [5] = biological target: T1, matriptase; experiment: Binding of HAI-1 to matriptase (95-kDa complex formation, immunoblot with mAb 21-9)
Method: as §2, §1

matriptase [6] = biological target: T1, matriptase; experiment: Proteolytic activity assay (cleavage rate of fluorescent substrate BOC-Gln-Ala-Arg-AMC); type: biochemical; conditions: pH 8.0, 37° C.
Method: as §2
[…] Louis), as a substrate. The rate of cleavage was determined with a fluorescence spectrophotometer (Hitachi, F-4500).

Molecule: Ceramide1-P
induction of matriptase activation (two-chain form) (matriptase [1]): induced the activation of matriptase although at higher concentration than S1P

Molecule: C[C@]12CC[C@@H]3c4ccc(O)cc4CC[C@H]3[C@@H]1CC[C@@H]2O [17β-estradiol]
change in mRNA levels for matriptase or HAI-1 ([2]; 100 nM 17β-estradiol): no change

Molecule: lysophosphatidic acid [LPA]
actin cytoskeleton rearrangement (stress-fiber formation) [3]: induced actin cytoskelaton reorganization
induction of matriptase activation (two-chain form) (matriptase [1]): could mimic serum and LDL induced activation of matriptase
concentration at which maximal activation of matriptase was achieved (matriptase [1]): 1 µg/mL

Molecule: C=C1[C@@H](C)[C@H]2[C@H](Cc3ccccc3)NC(=O)[C@]23[C@H](OC(C)=O)/C=C/[C@@](C)(O)C(=O)[C@@H](C)C/C=C/[C@H]3[C@@H]1O [cytochalasin D]
block of S1P-induced activation of matriptase (matriptase [1]; pretreatment of cells before S1P): failed to block the activation of matriptase by S1P

Molecule: CCCCCCCCCCCCC/C=C/[C@@H](O)[C@@H](N)COP(=O)(O)O [S1P, shingosine 1-phosphate]
actin cytoskeleton rearrangement (stress-fiber formation) [3]: induced actin cytoskelaton reorganization
induction of matriptase activation (two-chain form) (matriptase [1]): could mimic serum and LDL induced activation of matriptase
potency in inducing the activation of matriptase relative to LPA (matriptase [1]; S1P versus LPA): 100 fold
time at which activation of matriptase started after addition (matriptase [1]; after S1P addition): ≤ 5 min
time to maximal activation of matriptase (matriptase [1]; after S1P addition): ≤ 10 min
concentration at which maximal activation of matriptase was achieved (matriptase [1]): 0.001 µg/mL
concentration at which maximal activation of matriptase was achieved (matriptase [1]; molar value in brackets): 2.6 nM

Molecule: CC(=O)[C@H]1CC[C@H]2[C@@H]3CCC4=CC(=O)CC[C@]4(C)[C@H]3CC[C@]12C [progesterone]
change in mRNA levels for matriptase or HAI-1 ([2]; 100 nM 17β-estradiol plus 100 nM progesterone): no change

incubation time after which uncomplexed matriptase was undetectable by immunoblot (matriptase [5]; pH 8.0, 37° C.): 30 min
formation of 95-kDa matriptase/HAI-1 complex (matriptase [5]; pH raised to 8.0, 37° C.): rapidly occurred
rate of cleavage of synthetic fluorescent substrate by matriptase after HAI-1 binding (matriptase [6]): drastically decreased
B1: HAI-1: type-1, integral membrane, Kunitz-type serine protease inhibitor, cognate inhibitor of matriptase (protein, UniProt O43278 36-529, looked up)
Kunitz-type protease …: GPPPAPPGLPAGADCLNSFTAGVPGFVLDTNASVSNGATFLESPTVRRGWDCVRACCTTQNCNLALVELQPDRGEDAIAACFLINCLYEQNFVCKFAPREGFINYLTREVYRSYRQLRTQGFGGSGIPKAWAGIDLKVQPQEPLVLKDVENTDWRLLRGDTDVRVERKDPNQVELWGLKEGTYLFQLTVTSSDHPEDTANVTVTVLSTKQTEDYCLASNKVGRCRGSFPRWYYDPTEQICKSFVYGGCLGNKNNYLREEECILACRGVQGGPLRGSSGAQATFPQGPSMERRHPVCSGTCQPTQFRCSNGCCIDSFLECDDTPNCPDASDEAACEKYTSGFDELQRIHFPSDKGHCVDLPDTGLCKESIPRWYYNPFSEHCARFTYGGCYGNKNNFEEEQQCLESCRGISKKDVFGLRREIPIPSTGSVEMAVAVFLVICIVVVVAILGYCFFKNQRKDFHGHHHHPPPTPASSTVSTTEDTEHLVYNHTTRPL
gelatinolytic activity of the 95-kDa matriptase/HAI-1 complex (matriptase [4]): only trace amounts of gelatinolytic activity
